Target: bovine cerebral TPK1 (Bos taurus, UniProt A0A059UE90)
Test: Inhibitory activity against P-GS1 phosphorylation by bovine cerebral TPK1
Format: biochemical
Conditions: not given
Procedure: Inhibitory Activity of the Medicament of the Present Invention Against P-GS1 Phosphorylation by Bovine Cerebral TPK1 […] The phosphorylation was started by adding ATP, and the reaction was conducted at 25° C. for 2 hours, and then stopped by adding 21% perchloric acid on ice cooling. The reaction mixture was centrifuged at 12,000 rpm for 5 minutes and adsorbed on P81 paper (Whatmann), and then the paper was washed four times with 75 mM phosphoric acid, three times with water and once with acetone. The paper was dried, and the residual radioactivity was measured using a liquid scintillation counter.

Chain of bovine cerebral TPK1 (A0A059UE90 1-419): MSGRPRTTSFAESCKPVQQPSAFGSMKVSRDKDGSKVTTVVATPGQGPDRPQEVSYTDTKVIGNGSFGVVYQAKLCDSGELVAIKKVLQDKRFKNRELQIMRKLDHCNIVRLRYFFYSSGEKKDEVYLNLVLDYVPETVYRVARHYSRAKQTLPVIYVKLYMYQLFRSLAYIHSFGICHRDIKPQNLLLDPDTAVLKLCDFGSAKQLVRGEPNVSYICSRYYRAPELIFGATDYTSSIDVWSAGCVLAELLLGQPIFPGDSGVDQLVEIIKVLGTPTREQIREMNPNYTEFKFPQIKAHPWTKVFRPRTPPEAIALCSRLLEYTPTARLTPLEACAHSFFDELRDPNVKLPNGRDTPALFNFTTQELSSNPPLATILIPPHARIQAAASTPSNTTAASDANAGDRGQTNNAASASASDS

Row | Compound | IC50
1 | Cn1c(O[C@H]2C[C@H]3CC[C@@H](C2)N3)nc(-c2ccncn2)cc1=O [Compound No. 2.101, endo-2-(8-Aza-bicyclo[3.2.1]oct-3-yloxy)-1-methyl-1H-[4,4′] bipyrimidinyl-6-one] | 0.115 to 0.342 µM

Same assay, conditions: P-GS1 phosphorylation, 41.7 μM [γ-32P] ATP, 25° C., 2 hours; read-out: IC50

Row | Compound | IC50
2 | CN1CCC(N2CCC(Oc3nc(-c4ccncn4)cc(=O)n3C)CC2)CC1 [1.505, 1-Methyl-2-(1′-methyl-[1,4′]bipiperidinyl-4-yloxy)-1H-[4,4′] bipyrimidinyl-6-one] | 0.395 µM
3 | Cn1c(OC2CCN(c3ccc(CN4CCCCC4)cc3)CC2)nc(-c2ccncn2)cc1=O [1.214, 1-Methyl-2-[1-(4-piperidin-1-ylmethyl-phenyl)piperidin-4-yloxy]-1H-[4,4′]bipyrimidinyl-6-one] | 0.0161 µM
4 | CN1CCC(CCN2CCC(Oc3nc(-c4ccncn4)cc(=O)n3C)CC2)CC1 [1.503, 1-Methyl-2-{1-[2-(1-methyl-piperidin-4-yl)ethyl]piperidin-4-yloxy)-1H-[4,4′]bipyrimidinyl-6-one] | 0.149 µM
5 | Cn1c(OC[C@@H]2CCCN2c2ccc(F)cc2)nc(-c2ccncn2)cc1=O [2.204, 2-[(2S)-1-(4-Fluoro-phenyl)pyrrolidin-2-ylmethoxy]-1-methyl-1H-[4,4′]bipyrimidinyl-6-one] | 0.0376 µM
6 | CCC1CCCCC1Oc1nc(-c2ccncn2)cc(=O)n1C (stereo not drawn) [1.803, 2-(2-Ethyl-cyclohexyloxy)-1-methyl-1H-[4,4′]bipyrimidinyl-6-one] | 0.948 µM
7 | Cn1c(OC2CCN(C(=O)OCc3ccccc3)CC2)nc(-c2ccncn2)cc1=O [1.110, Benzyl 4-(1-methyl-6-oxo-1,6-dihydro-[4,4′]bipyrimidinyl-2-yloxy) piperidine-1-carboxylate] | 0.14 µM
8 | CN(C)Cc1ccc(N2CCC(Oc3nc(-c4ccncn4)cc(=O)n3C)CC2)cc1 [1.220, 2-[1-(4-Dimethylaminomethyl-phenyl)piperidin-4-yloxy]-1-methyl-1H-[4,4′]bipyrimidinyl-6-one] | 0.0212 µM
9 | Cn1c(OC[C@H]2CCCN2c2ccc(F)cc2)nc(-c2ccncc2F)cc1=O [2.203, 2-[(2R)-1-(4-Fluoro-phenyl)pyrrolidin-2-ylmethoxy]-6-(3-fluoro-pyridin-4-yl)-3-methyl-3H-pyrimidin-4-one] | 0.0431 µM
10 | Cn1c(OC2CCN(c3cccnc3)CC2)nc(-c2ccncn2)cc1=O [1.224, 1-Methyl-2-(1-pyridin-3-yl-piperidin-4-yloxy)-1H-[4,4′]bipyrimidinyl-6-one] | 0.0298 µM
11 | Cn1c(OC2CCN(c3cccc(CN4CCCCC4)c3)CC2)nc(-c2ccncn2)cc1=O [1.223, 1-Methyl-2-[1-(3-piperidin-1-ylmethyl-phenyl)piperidin-4-yloxy]-1H-[4,4′]bipyrimidinyl-6-one] | 0.0094 µM
12 | CCN(CCOc1nc(-c2ccncc2F)cc(=O)n1C)c1cccc(C)c1 [1.808, 2-[2-(Ethyl-m-tolyl-amino)-ethoxy]-6-(3-fluoro-pyridin-4-yl)-3-methyl-3H-pyrimidin-4-one] | 0.067 µM
13 | Cn1c(OC2CCN(c3ccccc3CN3CCOCC3)CC2)nc(-c2ccncn2)cc1=O [Compound No. 1.301, 1-Methyl-2-[1-(2-morpholin-4-ylmethyl-phenyl)piperidin-4-yloxy]-1H-[4,4′]bipyrimidinyl-6-one] | 0.0611 µM
14 | Cn1c(OC[C@H]2CCCN2c2ccc(F)cc2)nc(-c2ccncn2)cc1=O [2.202, 2-[(2R)-1-(4-Fluoro-phenyl)pyrrolidin-2-ylmethoxy]-1-methyl-1H-[4,4′]bipyrimidinyl-6-one] | 0.158 µM
15 | Cn1c(OC[C@H]2CCN(c3ccccc3)C2)nc(-c2ccncn2)cc1=O [2.209, 1-Methyl-2-[(3S)-1-phenyl-pyrrolidin-3-ylmethoxy]-1H-[4,4′] bipyrimidinyl-6-one] | 0.941 µM
16 | Cn1c(OCCOc2ccccc2)nc(-c2ccncc2)cc1=O [1.805, 3-Methyl-2-(2-phenoxy-ethoxy)-6-pyridin-4-yl-3H-pyrimidin-4-one] | 0.37 µM
17 | Cn1c(OC2CCN(c3ccc4c(c3)CN(Cc3ccccc3)C4)CC2)nc(-c2ccncn2)cc1=O [1.227, 2-[1-(2-Benzyl-2,3-dihydro-1H-isoindol-5-yl)piperidin-4-yloxy]-1-methyl-1H-[4,4′]bipyrimidinyl-6-one] | 0.016 µM
18 | COc1cccc(N2CCCC(Oc3nc(-c4ccncn4)cc(=O)n3C)C2)c1 (stereo not drawn) [1.106, 2-[1-(3-Methoxy-phenyl)piperidin-3-yloxy]-1-methyl-1H-[4,4′]bipyrimidinyl-6-one] | 0.0015 µM
19 | Cn1c(OC2CCN(c3ccc([N+](=O)[O-])s3)CC2)nc(-c2ccncn2)cc1=O [1.228, 1-Methyl-2-[1-(5-nitro-thiophen-2-yl)piperidin-4-yloxy]-1H-[4,4′] bipyrimidinyl-6-one] | 0.555 µM
20 | Cn1c(OC2CCN(CCC3CCN(Cc4ccccc4)CC3)CC2)nc(-c2ccncn2)cc1=O [Compound No. 1.502, 2-{1-[2-(1-Benzyl-piperidin-4-yl)ethyl]piperidin-4-yloxy}-1-methyl-1H-[4,4′]bipyrimidinyl-6-one] | 0.0339 µM

Row | Compound | IC50
21 | Cn1c(OCCc2ccccc2)nc(-c2ccncc2)cc1=O [2.002, 3-Methyl-2-phenethyloxy-6-pyridin-4-yl-3H-pyrimidin-4-one] | 0.2 µM
22 | CN1CCN(Cc2ccc(N3CCC(Oc4nc(-c5ccncn5)cc(=O)n4C)CC3)cc2)CC1 [Compound No. 1.203, 1-Methyl-2-{1-[4-(4-methyl-piperazin-1-ylmethyl)phenyl]piperidin-4-yloxy}-1H-[4,4′] bipyrimidinyl-6-one] | 0.0064 µM
23 | Cn1c(OC[C@@H]2CCN(c3ccsc3)C2)nc(-c2ccncc2F)cc1=O [Compound No. 2.208, 6-(3-Fluoro-pyridin-4-yl)-3-methyl-2-[(3R)-1-(thiophen-3-yl)pyrrolidin-3-ylmethoxy]-3H-pyrimidin-4-one] | 0.108 µM
24 | Cn1c(OC2CCCCC2)nc(-c2ccncn2)cc1=O [1.802, 2-Cyclohexyloxy-1-methyl-1H-[4,4′]bipyrimidinyl-6-one] | 0.0226 µM
25 | Cn1c(OC2CCCN(c3ccccc3)C2)nc(-c2ccncn2)cc1=O (stereo not drawn) [Compound No. 1.101, 1-Methyl-2-(1-phenyl-piperidin-3-yloxy)-1H-[4,4′]bipyrimidinyl-6-one] | 0.0094 µM
26 | Cn1c(OC2CCN(c3ccc(N4CCNCC4)cc3)CC2)nc(-c2ccncn2)cc1=O [1.208, 1-Methyl-2-[1-(4-piperazin-1-yl-phenyl)-piperidin-4-yloxy]-1H-[4,4′]bipyrimidinyl-6-one] | 0.0106 µM
27 | Cn1c(OC2CCN(c3ccc4c(c3)COC(=O)N4)CC2)nc(-c2ccncn2)cc1=O [Compound No. 1.401, 1-Methyl-2-{[1-(2-oxo-1,4-dhydro-2H-3,1-benzoxazin-6-yl)piperidin-4-yl]oxy}-1H-[4,4′] bipyrimidinyl-6-one] | 0.0437 µM
28 | Cn1c(OC2CCN(c3ccc(CN4CCCCC4)cc3)C2)nc(-c2ccncn2)cc1=O (stereo not drawn) [1.231, 1-Methyl-2-[1-(4-piperidin-1-ylmethyl-phenyl)pyrrolidin-3-yloxy]-1H-[4,4′]bipyrimidinyl-6-one] | 0.0128 µM
29 | Cn1c(OC2CCCN(c3ccccc3F)C2)nc(-c2ccncn2)cc1=O (stereo not drawn) [1.103, 2-[1-(2-Fluoro-phenyl)piperidin-3-yloxy]-1-methyl-1H-[4,4′] bipyrimidinyl-6-one] | 0.049 µM
30 | Cn1c(OC[C@@H]2CCN(c3ccccc3)C2)nc(-c2ccncc2F)cc1=O [Compound No. 2.211, 6-(3-Fluoro-pyridin-4-yl)-3-methyl-2-[(3R)-1-phenyl-pyrrolidin-3-ylmethoxy]-3H-pyrimidin-4-one] | 0.658 µM
31 | CN1CCN(c2ccc(N3CCC(Oc4nc(-c5ccncn5)cc(=O)n4C)CC3)cc2)CC1 [1.209, 1-Methyl-2-{1-[4-(4-methyl-piperazin-1-yl)phenyl]piperidin-4-yloxy}-1H-[4,4′]bipyrimidinyl-6-one] | 0.0179 µM
32 | Cn1c(O[C@H]2C[C@H]3CC[C@@H](C2)N3c2ccc(F)cc2)nc(-c2ccncn2)cc1=O [Compound No. 2.102, endo-2-[8-(4-Fluoro-phenyl)-8-aza-bicyclo[3.2.1]oct-3-yloxy]-1-methyl-1H-[4,4′]bipyrimidinyl-6-one] | 0.237 µM
33 | Cn1c(OC[C@H]2CCCN2C(=O)Oc2ccccc2)nc(-c2ccncn2)cc1=O [Compound No. 2.201, Phenyl (2R)-2-(1-methyl-6-oxo-1,6-dihydro-[4,4′]bipyrimidinyl-2-yloxymethyl)pyrrolidine-1-carboxylate] | 0.0564 µM
34 | Cn1c(OC2CCN(c3ccc(CN4CCCCC4)cc3)CC2)nc(-c2ccncc2)cc1=O [1.215, 3-Methyl-2-[1-(4-piperidin-1-ylmethyl-phenyl)piperidin-4-yloxy]-6-pyridin-4-yl-3H-pyrimidin-4-one] | 0.0501 µM
35 | Cn1c(OC2CCN(Cc3ccccc3)CC2)nc(-c2ccncn2)cc1=O [1.504, 2-(1-Benzyl-piperidin-4-yloxy)-1-methyl-1H-[4,4′]bipyrimidinyl-6-one] | 0.955 µM
36 | Cn1c(OC2CCN(c3ccc(-c4ccncc4)cc3)CC2)nc(-c2ccncc2F)cc1=O [1.207, 6-(3-Fluoro-pyridin-4-yl)-3-methyl-2-[1-(4-pyridin-4-yl-phenyl)piperidin-4-yloxy]-3H-pyrimidin-4-one] | 0.0326 µM
37 | Cn1c(OC2CCN(c3ccc(N4CCN(C(=O)OC(C)(C)C)CC4)cc3)CC2)nc(-c2ccncn2)cc1=O [1.211, tert-Butyl 4-{4-[4-(1-methyl-6-oxo-1,6-dihydro-[4,4′]bipyrimidinyl-2-yloxy)piperidin-1-yl]phenyl}piperazine-1-carboxylate] | 0.977 µM
38 | CC(=O)N1CCN(c2ccc(N3CCC(Oc4nc(-c5ccncn5)cc(=O)n4C)CC3)cc2)CC1 [1.210, 2-{1-[4-(4-Acetyl-piperazin-1-yl)phenyl]piperidin-4-yloxy}-1-methyl-1H-[4,4′]bipyrimidinyl-6-one] | 0.0274 µM
39 | Cn1c(OC[C@H]2CCN(c3ccccc3)C2)nc(-c2ccncc2F)cc1=O [2.210, 6-(3-Fluoro-pyridin-4-yl)-3-methyl-2-[(3S)-1-phenyl-pyrrolidin-3-ylmethoxy]-3H-pyrimidin-4-one] | 0.134 µM
